Tested on: NCI-H1876 tumor spheroid viability
Assay: Anticancer human tumor NCI-H1876 cell line growth inhibition;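 note: spheroids exposed to compounds for seven days before the viability read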;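 for viability, T/C: percent of DMSO vehicle control viability so 100% = vehicle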
Conditions: spheroids with HUVEC and MSC; for IC50: curve of first compound; for viability, T/C: stronger effect = lower value
How it was run: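 Complex spheroids of malignant cells with endothelial cells and mesenchymal stem cells; agents alone or combined, from near clinical Cmax (or 10 microM if unknown) down in half-log steps, 0.25% DMSO final.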

[1] = second compound 1 µM, first compound 0.0316 µM
[2] = second compound 1 µM, first compound 0.1 µM
[3] = second compound 1 µM, first compound 0.316 µM
[4] = second compound 1 µM, first compound 1 µM
[5] = second compound 1 µM, first compound 3.16 µM
[6] = second compound 1 µM, first compound 10 µM
[7] = second compound 3.16 µM, first compound 0.0316 µM
[8] = second compound 3.16 µM, first compound 0.1 µM
[9] = second compound 3.16 µM, first compound 0.316 µM
[10] = second compound 3.16 µM, first compound 1 µM
[11] = second compound 3.16 µM, first compound 3.16 µM
[12] = second compound 3.16 µM, first compound 10 µM
[13] = second compound 10 µM, first compound 0.0316 µM
[14] = second compound 10 µM, first compound 0.1 µM
[15] = second compound 10 µM, first compound 0.316 µM
[16] = second compound 10 µM, first compound 1 µM
[17] = second compound 10 µM, first compound 3.16 µM
[18] = second compound 10 µM, first compound 10 µM
[19] = second compound 31.6 µM, first compound 0.0316 µM
[20] = second compound 31.6 µM, first compound 0.1 µM
[21] = second compound 31.6 µM, first compound 0.316 µM
[22] = second compound 31.6 µM, first compound 1 µM
[23] = second compound 31.6 µM, first compound 3.16 µM
[24] = second compound 31.6 µM, first compound 10 µM
[25] = second compound 100 µM, first compound 0.0316 µM
[26] = second compound 100 µM, first compound 0.1 µM
[27] = second compound 100 µM, first compound 0.316 µM
[28] = second compound 100 µM, first compound 1 µM
[29] = second compound 100 µM, first compound 3.16 µM
[30] = second compound 100 µM, first compound 10 µM

| SMILES | IC50 (second compound 1 µM) | IC50 (second compound 3.16 µM) | IC50 (second compound 10 µM) | IC50 (second compound 31.6 µM) | IC50 (second compound 100 µM) | viability, T/C [1] | viability, T/C [2] | viability, T/C [3] | viability, T/C [4] | viability, T/C [5] | viability, T/C [6] | viability, T/C [7] | viability, T/C [8] | viability, T/C [9] | viability, T/C [10] | viability, T/C [11] | viability, T/C [12] | viability, T/C [13] | viability, T/C [14] | viability, T/C [15] | other results |
| --- | --- | --- | --- | --- | --- | --- | --- | --- | --- | --- | --- | --- | --- | --- | --- | --- | --- | --- | --- | --- | --- |
| CC(C)n1c(=O)n(C)c2cnc3cc(F)c(-c4ccc(OCCCN5CCCCC5)nc4)cc3c21 + Cn1nnc2c(C(N)=O)ncn2c1=O | 411 nM | 517 nM | 571 nM | 623 nM | 176 nM | 87% | 68.1% | 51.6% | 39.2% | 27.7% | 12.1% | 88.9% | 70.7% | 54.7% | 42.6% | 29.6% | 12.8% | 85.5% | 68.6% | 55.4% | viability, T/C [16]: 41.6%; viability, T/C [17]: 36.1%; viability, T/C [18]: 11.4%; viability, T/C [19]: 84.8%; viability, T/C [20]: 72.5%; viability, T/C [21]: 58.7%; viability, T/C [22]: 42.8%; viability, T/C [23]: 29.7%; viability, T/C [24]: 12.8%; viability, T/C [25]: 62.4%; viability, T/C [26]: 55.2%; viability, T/C [27]: 43.2%; viability, T/C [28]: 35.3%; viability, T/C [29]: 25.9%; viability, T/C [30]: 10.2% |
| CC1COCCN1c1cc(-c2ccnn2C)c2ccnc(-c3ccn[nH]3)c2n1 (stereo not given) + Cn1nnc2c(C(N)=O)ncn2c1=O | 55.4 nM | 54.5 nM | 59.8 nM | 33.6 nM | < 31.6 nM | 57% | 42.4% | 30.1% | 20.7% | 11.2% | 6.47% | 57.7% | 41.3% | 30.1% | 19.4% | 12.5% | 6.71% | 53% | 49.1% | 30.1% | viability, T/C [16]: 20%; viability, T/C [17]: 11%; viability, T/C [18]: 7.84%; viability, T/C [19]: 51.5%; viability, T/C [20]: 35.6%; viability, T/C [21]: 29.5%; viability, T/C [22]: 17.2%; viability, T/C [23]: 10.8%; viability, T/C [24]: 7.29%; viability, T/C [25]: 32.2%; viability, T/C [26]: 24%; viability, T/C [27]: 18.8%; viability, T/C [28]: 11.7%; viability, T/C [29]: 28.5%; viability, T/C [30]: 6.09% |
| COc1cc(C)[nH]c(=O)c1CN1CCc2c(Cl)cc(C(OC)C3COC3)c(Cl)c2C1=O (stereo not given) + Cn1nnc2c(C(N)=O)ncn2c1=O | > 10000 nM | > 10000 nM | > 10000 nM | > 10000 nM | > 10000 nM | 112% | 108% | 109% | 90.8% | 92.7% | 70.4% | 117% | 117% | 110% | 102% | 89.9% | 75.4% | 108% | 109% | 107% | viability, T/C [16]: 100%; viability, T/C [17]: 95%; viability, T/C [18]: 79.1%; viability, T/C [19]: 108%; viability, T/C [20]: 107%; viability, T/C [21]: 107%; viability, T/C [22]: 102%; viability, T/C [23]: 86.5%; viability, T/C [24]: 71.3%; viability, T/C [25]: 92.2%; viability, T/C [26]: 91.4%; viability, T/C [27]: 81.2%; viability, T/C [28]: 81.4%; viability, T/C [29]: 81.7%; viability, T/C [30]: 72.3% |
| COc1ccc([C@@H](O)c2cc(-c3ncnc4cc(N5CCOCC5)ccc34)c(F)cc2Cl)nn1 + Cn1nnc2c(C(N)=O)ncn2c1=O | 1080 nM | 1210 nM | 1000 nM | 970 nM | 335 nM | 93.8% | 86.7% | 74.3% | 49% | 29% | 4.64% | 97.5% | 85.2% | 80% | 53.7% | 26.5% | 4.48% | 94.4% | 86.3% | 72% | viability, T/C [16]: 51%; viability, T/C [17]: 23.5%; viability, T/C [18]: 3.37%; viability, T/C [19]: 90.8%; viability, T/C [20]: 82.2%; viability, T/C [21]: 73.1%; viability, T/C [22]: 47.7%; viability, T/C [23]: 25.1%; viability, T/C [24]: 4.04%; viability, T/C [25]: 48.4%; viability, T/C [26]: 65.8%; viability, T/C [27]: 48.5%; viability, T/C [28]: 36.1%; viability, T/C [29]: 17.8%; viability, T/C [30]: 2.3% |
| Cc1cc(C)c(CNC(=O)c2cc(-c3ccc(CN4CCOCC4)cc3)cc3c2cnn3C2CCCC2)c(=O)[nH]1 + Cn1nnc2c(C(N)=O)ncn2c1=O | 713 nM | 873 nM | 546 nM | 750 nM | 201 nM | 93.8% | 79.2% | 60.2% | 44.8% | 29.3% | 9.14% | 85.7% | 78.6% | 64% | 49.8% | 27.2% | 12.2% | 88.7% | 58.5% | 61.8% | viability, T/C [16]: 46.8%; viability, T/C [17]: 26.6%; viability, T/C [18]: 13.3%; viability, T/C [19]: 53.8%; viability, T/C [20]: 74.6%; viability, T/C [21]: 59.3%; viability, T/C [22]: 44.7%; viability, T/C [23]: 26.3%; viability, T/C [24]: 10.7%; viability, T/C [25]: 58.8%; viability, T/C [26]: 52.3%; viability, T/C [27]: 47%; viability, T/C [28]: 39.8%; viability, T/C [29]: 25.2%; viability, T/C [30]: 8.6% |
| [2H]c1nc(C)nc([2H])c1-c1cc(NC[C@@H](C)c2cccc3c(C(=O)NC)ccnc23)ncn1 + Cn1nnc2c(C(N)=O)ncn2c1=O | > 10000 nM | > 10000 nM | > 10000 nM | > 10000 nM | > 10000 nM | 98.1% | 98.7% | 101% | 101% | 86.8% | 67.6% | 106% | 104% | 95.4% | 106% | 88.8% | 77.2% | 104% | 103% | 106% | viability, T/C [16]: 101%; viability, T/C [17]: 89.3%; viability, T/C [18]: 71.5%; viability, T/C [19]: 91.8%; viability, T/C [20]: 55.8%; viability, T/C [21]: 91.7%; viability, T/C [22]: 95.5%; viability, T/C [23]: 89.2%; viability, T/C [24]: 50.1%; viability, T/C [25]: 69.5%; viability, T/C [26]: 76.9%; viability, T/C [27]: 70.4%; viability, T/C [28]: 66.2%; viability, T/C [29]: 65.1%; viability, T/C [30]: 58.3% |

From PubChem BioAssay AID1845207 (Molecular Pharmacology Branch, DTP, NCI, 2023)
